Read-outs that look alike come from different tables or passages of the source.
How the values were obtained:
Format in all cases: cell-based
[1] = system: glioblastoma cell line U87; test: Cytotoxicity in cancer cell lines (CellTiter-Glo), U87; details: Homo sapiens, U-87 MG, U87 cells, mean of three tests
Excerpt: (§1) All cells were obtained from ATCC. […] Normocin® was obtained from InvivoGen. FBS was obtained from Gibco. […] All test compounds were synthesized as described herein.

[2] = system: immortalized human T lymphocyte Jurkat cells; test: Cytotoxicity in cancer cell lines (CellTiter-Glo), Jurkat; details: mean of three tests
Excerpt: as §1

[3] = system: melanoma cell line RPMI-7951; test: Cytotoxicity in cancer cell lines (CellTiter-Glo), RPMI-7951; details: Homo sapiens, RPMI-7951 cells, mean of three tests
Excerpt: as §1

[4] = system: melanoma cell line A375; test: Cytotoxicity in cancer cell lines (CellTiter-Glo), A375; details: Homo sapiens, A-375, A375 cells, mean of three tests
Excerpt: as §1

[5] = system: human pancreatic carcinoma cell line PL45; test: Cytotoxicity in cancer cell lines (CellTiter-Glo), PL45; details: PL45 cells, mean of three tests
Excerpt: as §1

[6] = 48 hours, read-out: Cytotoxicity EC50 at 48 hours, A375
[7] = 48 hours, read-out: Cytotoxicity EC50 at 48 hours, PL45

Row | SMILES | EC50 ([1]; 48 hours, read-out: Cytotoxicity EC50 at 48 hours, U87) [nM] | EC50 ([1]; 72 hours, read-out: Cytotoxicity EC50 at 72 hours, U87) [nM] | EC50 ([2]; 48 hours, read-out: Cytotoxicity EC50 at 48 hours, Jurkat) [nM] | EC50 ([2]; 72 hours, read-out: Cytotoxicity EC50 at 72 hours, Jurkat) [nM] | EC50 ([3]; 48 hours, read-out: Cytotoxicity EC50 at 48 hours, RPMI) [nM] | EC50 ([3]; 72 hours, read-out: Cytotoxicity EC50 at 72 hours, RPMI) [nM] | EC50 [4, 6] [nM] | EC50 ([4]; 72 hours, read-out: Cytotoxicity EC50 at 72 hours, A375) [nM] | EC50 [5, 7] [nM] | EC50 ([5]; 72 hours, read-out: Cytotoxicity EC50 at 72 hours, PL45) [nM]
1 | O=S1(=O)C=CC(OS(=O)(=O)c2ccc(Oc3ccccc3)cc2)C1 (centres unmarked) [Compound 1, 1,1-dioxido-2,3-dihydrothiophen-3-yl 4-phenoxybenzenesulfonate] | 1300 | 900 | 400 | 200 | 600 | 200 | 2500 | 13000 | 2100 | 200
2 | O=S1(=O)C=C[C@H](OS(=O)(=O)c2ccc(Oc3ccccc3)cc2)C1 [Compound 1a, (S)-1,1-dioxido-2,3-dihydrothiophen-3-yl 4-phenoxybenzenesulfonate] | – | – | – | – | – | – | 1300 | – | 2100 | –
3 | O=S1(=O)C=C[C@@H](OS(=O)(=O)c2ccc(Oc3ccccc3)cc2)C1 [Compound 1b, (R)-1,1-dioxido-2,3-dihydrothiophen-3-yl 4-phenoxybenzenesulfonate] | – | – | – | – | – | – | 2500 | – | 3000 | –

Reference: patent US12404259B2, “Inhibitors of extracellular signal-regulated kinase” (GEN1E LIFESCIENCES INC., priority 2023, dated 2025)
